Columns and labels:
transplanted tumors = assay: Transplanted tumor assay; type: in vivo; conditions: F1 hybrid mice; compound generally by infusion by tail tether
Protocol: F1 hybrid mice were used in the assay. The mice receive ascites fluid or dilutions of tumor brei on Day 0. A sample of the inocula is incubated in thioglycolate media as a check for gross contamination of the tumor material. After all test animals are inoculated with tumors, they are randomized for the assay. Control animals receive vehicle, while treated animals receive an invention compound dissolved in the vehicle, generally by infusion by tail tether. All animals are monitored daily for acute toxicity and other clinical signs. Survival is checked daily for the control group and treated group. The assay generally is continued for 60 days, at which time all surviving animals are euthanized.

[1] = target: T1, Human EGF receptor tyrosine kinase (Homo sapiens, UniProt P00533); assay: EGF receptor tyrosine kinase enzyme assay (substrate peptide phosphorylation); type: biochemical; conditions: read-out: EGF-FL IC50
T1 construct: Human EGF receptor tyrosine kinase was isolated from A431 epidermoid carcinoma cells; endogenous in cells; host or cells: A431 epidermoid carcinoma cells

PDGF receptor = PDGF receptor autophosphorylation in rat aorta smooth muscle cells; type: cell-based; conditions: PDGF-BB 30 ng/mL for 5 minutes after 2 hours with compound; read-out: Inhibition of PDGF-Stimulated Receptor Auto Phosphorylation in Rat Aortic Smooth Muscle Cells (IC50)
Protocol: Rat aorta smooth muscle cells (RASMC) were isolated from the thoracic aorta of rats and explanted according to the method of Ross, J. Cell. Biol., 30:172-186 (1971). Cells were grown in Dulbecco's modified Eagle's medium (DMEM, Gibco) containing 10% fetal calf serum (FBS, Hyclone, Logan, Utah), 1% glutamine (Gibco) and 1% penicillin/streptomycin (Gibco). Cells were identified as smooth muscle cells by their "hill and valley" growth pattern and by fluorescent staining with a monoclonal antibody specific for SMC ∝-actin (Sigma). RASMC were used between passages 5 and 20 for all experiments. Test compounds were prepared in dimethylsulfoxide (DMSO) in order to achieve consistency in the vehicle and to ensure compound solubility. Appropriate DMSO controls were simultaneously evaluated with the test compounds.
RASMC were grown to confluency in 100 mm dishes. Growth medium was removed and replaced with serum-free medium and cells were incubated at 37°C for an additional 24 hours. Test compounds were then added directly to the medium and cells incubated for an additional 2 hours. After 2 hours, PDGF-BB was added at a final concentration of 30 ng/mL for 5 minutes at 37°C to stimulated autophosphorylation of the PDGF receptor. Following growth factor treatment, the medium was removed, and cells were washed with cold phosphate-buffered saline and immediately lysed with 1 mL of lysis buffer (50 mM HEPES[pH 7.5], 150 mM NaCl, 10% glycerol, 1% Triton X-100, 1 mM EDTA, 1 mMEGTA, 50 mM NaF, 1 mM sodium orthovanadate, 30 mM p-nitrophenyl phosphate, 10 mM sodium pyrophosphate, 1 mM phenylmethyl sulfonyl fluoride, 10 µg/mL aprotinin, and 10 µg/mL leupeptin). Lysates were centrifuged at 10,000 × g for 10 minutes. […] Following the incubation, protein-A-sepharose beads were added for 2 hours with continuous mixing, and immune complexes bound to the beads washed four times with 1 mL lysis wash buffer. Immune complexes were solubilized in 30 µL of Laemmli sample buffer and electrophoresed in 4-20% SDS polyacrylamide gels. Following electrophoresis, separated proteins were transferred to nitrocellulose and immunoblotted with anti-phosphotyrosine antiserum. […] IC50 values were generated from the densitometric data.

C-src kinase = target: T2, C-src kinase (Homo sapiens, UniProt P12931); assay: C-src kinase assay (poly GluTyr substrate); type: biochemical; conditions: read-out: C-src TK IC50
T2 construct: made in house; host or cells: baculovirus infected insect cells

HCT-8 = assay: Soft agar colony formation, human colon adenocarcinoma cells; type: cell-based; conditions: HCT-8, 336 h, colony formation in 0.3% soft agar, generally 2 weeks, read-out: Inhibition of Human Colon Adenocarcinoma IC50, HCT-8
Protocol: (§1) Three such human cell lines were identified as HCT-8, SW-620, and HT-29. In a typical assay, the cells are suspended in 0.3% soft agar containing an invention compound at various concentration levels, and are plated into six-well plates, each plate containing a 1% agar plug. The cell plates are incubated at 37°C in a humidified carbon dioxide (5%) incubator, generally for 2 weeks. At the end of the incubation period, colonies of cells are detected by staining the wells with 1 mg/mL of p-iodonitrotetrazolium violet. The cells are counted on an optical colony counter. […] TABLE III. Inhibition of Human Colon Adenocarcinoma IC50 (µM)

SW-620 = assay: as above; type: cell-based; conditions: SW-620, 336 h, colony formation in 0.3% soft agar, generally 2 weeks, read-out: Inhibition of Human Colon Adenocarcinoma IC50, SW-620
Protocol: as §1

HT-29 = assay: as above; type: cell-based; conditions: HT-29, 336 h, colony formation in 0.3% soft agar, generally 2 weeks, read-out: Inhibition of Human Colon Adenocarcinoma IC50, HT-29
Protocol: as §1

[2] = target: T3, mouse PDGF-β receptor tyrosine kinase (Mus musculus, UniProt P05622); assay: PDGF receptor tyrosine kinase assay (32P incorporation into glutamate-tyrosine co-polymer); type: biochemical; conditions: read-out: PDGFr-TK IC50
T3 construct: amplify a fragment of DNA that codes for the intracellular tyrosine kinase domain; made in house; host or cells: SF9 insect cells (baculovirus)
Summary of the method: (§2)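 32P transfer from γ32P-ATP (50 µM ATP) to poly(Glu,Tyr) 4:1 was measured over 10 min at 25°C and counted after TCA precipitation onto filters, minus the no-enzyme background. Enzyme was baculovirus/SF9 lysate of the kinase domain, preincubated 10 min with inhibitor in Hepes pH 7.0, MnCl2, vanadate.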

[3] = target: T4, human FGF-1 (flg) receptor tyrosine kinase (Homo sapiens, UniProt P11362); assay: FGF receptor tyrosine kinase assay (32P incorporation into glutamate-tyrosine co-polymer); type: biochemical; conditions: read-out: FGFr-TK IC50
T4 construct: amplify a fragment of DNA that codes for the intracellular tyrosine kinase domain; made in house; host or cells: SF9 insect cells (baculovirus)
Summary of the method: as §2

T4 sequence (P11362 478-767 limits assumed): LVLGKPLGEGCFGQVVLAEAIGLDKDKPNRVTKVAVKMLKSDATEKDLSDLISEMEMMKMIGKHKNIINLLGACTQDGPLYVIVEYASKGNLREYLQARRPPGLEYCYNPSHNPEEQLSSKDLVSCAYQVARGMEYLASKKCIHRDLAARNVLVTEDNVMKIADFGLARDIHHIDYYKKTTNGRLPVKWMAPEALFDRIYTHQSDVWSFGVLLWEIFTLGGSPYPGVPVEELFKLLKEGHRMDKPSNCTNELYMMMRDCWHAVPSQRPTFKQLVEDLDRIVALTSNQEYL
T3 sequence (P05622 599-961 limits assumed): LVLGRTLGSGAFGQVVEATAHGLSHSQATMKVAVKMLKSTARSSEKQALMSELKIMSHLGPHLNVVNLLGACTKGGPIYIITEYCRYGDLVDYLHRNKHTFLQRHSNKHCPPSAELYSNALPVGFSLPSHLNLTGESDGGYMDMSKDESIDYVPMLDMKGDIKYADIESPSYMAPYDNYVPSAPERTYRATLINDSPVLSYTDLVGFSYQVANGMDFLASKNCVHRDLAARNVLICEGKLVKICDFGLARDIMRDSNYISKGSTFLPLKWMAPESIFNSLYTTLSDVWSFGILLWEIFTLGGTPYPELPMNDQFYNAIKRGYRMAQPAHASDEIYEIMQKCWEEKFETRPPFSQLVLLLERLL
T2 sequence (P12931 whole entry): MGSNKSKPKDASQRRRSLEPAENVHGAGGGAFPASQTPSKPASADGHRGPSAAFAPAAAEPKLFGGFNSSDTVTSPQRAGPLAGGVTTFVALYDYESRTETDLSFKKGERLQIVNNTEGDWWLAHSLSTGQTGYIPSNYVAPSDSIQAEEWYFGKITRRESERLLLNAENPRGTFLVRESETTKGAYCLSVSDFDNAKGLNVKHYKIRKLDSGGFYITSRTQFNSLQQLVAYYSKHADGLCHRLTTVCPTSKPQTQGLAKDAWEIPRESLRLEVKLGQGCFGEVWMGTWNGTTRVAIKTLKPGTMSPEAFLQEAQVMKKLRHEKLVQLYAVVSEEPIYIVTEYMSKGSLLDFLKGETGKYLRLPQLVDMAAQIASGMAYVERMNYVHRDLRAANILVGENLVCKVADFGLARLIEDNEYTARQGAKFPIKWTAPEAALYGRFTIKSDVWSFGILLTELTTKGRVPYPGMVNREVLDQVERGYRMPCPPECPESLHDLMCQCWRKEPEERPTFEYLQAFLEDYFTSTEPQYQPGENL
T1 sequence (P00533 25-1210): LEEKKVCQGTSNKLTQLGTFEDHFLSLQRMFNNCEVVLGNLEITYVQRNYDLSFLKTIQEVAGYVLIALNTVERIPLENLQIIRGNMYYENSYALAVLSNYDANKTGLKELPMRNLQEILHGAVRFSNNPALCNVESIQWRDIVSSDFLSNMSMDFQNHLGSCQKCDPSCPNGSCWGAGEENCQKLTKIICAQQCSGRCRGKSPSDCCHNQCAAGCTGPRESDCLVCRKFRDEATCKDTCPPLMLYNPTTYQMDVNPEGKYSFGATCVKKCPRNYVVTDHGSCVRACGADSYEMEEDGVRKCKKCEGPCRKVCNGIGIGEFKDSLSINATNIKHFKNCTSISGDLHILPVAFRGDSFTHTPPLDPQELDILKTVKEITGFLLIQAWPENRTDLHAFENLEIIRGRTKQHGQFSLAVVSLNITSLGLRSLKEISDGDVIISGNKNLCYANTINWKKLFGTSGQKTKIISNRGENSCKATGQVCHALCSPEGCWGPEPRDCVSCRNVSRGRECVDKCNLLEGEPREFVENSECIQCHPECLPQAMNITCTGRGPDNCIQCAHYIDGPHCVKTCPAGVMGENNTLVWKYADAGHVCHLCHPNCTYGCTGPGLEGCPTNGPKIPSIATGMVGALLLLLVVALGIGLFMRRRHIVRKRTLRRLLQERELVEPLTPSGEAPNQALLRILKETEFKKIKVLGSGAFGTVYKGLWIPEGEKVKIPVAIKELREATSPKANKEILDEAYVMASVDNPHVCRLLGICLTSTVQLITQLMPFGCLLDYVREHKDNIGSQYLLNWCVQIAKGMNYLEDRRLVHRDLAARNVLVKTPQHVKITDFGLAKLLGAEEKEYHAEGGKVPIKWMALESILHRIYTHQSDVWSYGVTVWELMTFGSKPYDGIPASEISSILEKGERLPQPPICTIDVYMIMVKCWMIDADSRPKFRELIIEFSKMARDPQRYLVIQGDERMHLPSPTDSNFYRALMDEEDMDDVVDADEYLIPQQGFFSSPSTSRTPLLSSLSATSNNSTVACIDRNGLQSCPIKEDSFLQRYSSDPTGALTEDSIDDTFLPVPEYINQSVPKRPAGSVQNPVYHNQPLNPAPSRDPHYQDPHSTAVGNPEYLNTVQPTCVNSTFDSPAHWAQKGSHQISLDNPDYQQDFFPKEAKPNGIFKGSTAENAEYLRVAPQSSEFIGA

| SMILES | life span of animals infected with transplanted tumors (transplanted tumors) | IC50 [1] | IC50 (PDGF receptor) | IC50 (C-src kinase) | IC50 (HCT-8) | IC50 (SW-620) | IC50 (HT-29) | IC50 [2] | IC50 [3] |
| --- | --- | --- | --- | --- | --- | --- | --- | --- | --- |
| CCN(CC)CCOc1ccc(Nc2ncc3cc(-c4c(Cl)cccc4Cl)c(=O)n(C)c3n2)cc1 [Example 80, 6-(2,6-Dichlorophenyl)-2-[4-(2-diethylaminoethoxy)-phenylamino]-8-methyl-8H-pyrido[2,3-d]pyrimidin-7-one] | increased the life span | – | – | – | – | – | – | – | – |
| Cn1c(=O)c(-c2c(Cl)cccc2Cl)cc2cnc(N)nc21 [Example 12, 2-Amino-6-(2,6-dichlorophenyl)-8-methyl-pyrido[2,3-d]-pyrimidin-7(8H)-one] | – | 5600 nM | 9400 nM | – | – | – | – | – | – |
| Cn1c(=O)c(-c2c(Cl)cccc2Cl)cc2cnc(Nc3cccc(Br)c3)nc21 [Example 55, 2-(3-Bromophenylamino)-6-(2,6-dichlorophenyl)-8-methyl-8H-pyrido[2,3-d]pyrimidin-7-one] | – | – | 60 nM | 59 nM | 110 nM | 120 nM | 430 nM | 1800 nM | 2200 nM |
| Cn1c(=O)c(-c2c(Cl)cccc2Cl)cc2cnc(Nc3ccncc3)nc21 [Example 58, 6-(2,6-Dichlorophenyl)-8-methyl-2-(pyridin-4-ylamino)-8H-pyrido[2,3-d]pyrimidin-7-one] | – | 119 nM | 13 nM | 23 nM | 170 nM | 130 nM | 380 nM | 71 nM | 159 nM |
